The values below are quoted from earlier work in PMC7536072, “Molecular and functional characterization of somatostatin-type signalling in a deuterostome invertebrate” (Open Biology, 2020).

The test system of one data set is mammals. As to conditions: intracerebroventricular, cited from earlier work. From the text: (§1) Subsequently, an N-terminally extended isoform (SS28) was identified, with both SS14 and SS28 being derived from the same precursor protein [5]. Five G-protein-coupled receptors, SSTR1, SSTR2, SSTR3, SSTR4 and SSTR5, mediate effect ...
The next data set concerns growth hormone release. The following applies: ref [1]; cited from earlier work.
Description: as §1

In a further data set the test system is insulin release. The following applies: ref [2]; cited from earlier work.
Description: as §1

Bridges are numbered along the chain shown (N, C = ends). Where no end group is shown, it is not given here.

In the case of “SS: tetradecapeptide with a disulfide bridge linking cysteine residues at positions 3 and 14 (SS14) (AGCKNFFWKTFTSC; disulfide 3-14; UniProt P61278 103-116, looked up)”, the “effect on food intake and drinking” value in the data set with mammals (ref [12],[13]) is “stimulation of food intake and drinking”. Moreover, the anxiolytic effect result with mammals (ref [14]) is reported as “anxiolysis”. Besides, the “effect on growth hormone release” value with growth hormone release was “inhibits growth hormone release”. Moreover, the “effect on insulin release” value with insulin release is “inhibits insulin release”.
